Results reported in patent publication US20250213606A1, “MEDICINAL AGENT (EMBODIMENTS) AND DEVICE FOR USING SAME” (priority 2022, published 2025).

Legend:
[1] = tested on: laboratory animals and volunteer testers; experiment: Effective concentration ranges of the components of the mixture; assay type: in vivo
[2] = governs risk of condensation in cold conditions; cited from earlier work

## [Ar] [argon]
[1]; laboratory animals, volunteer testers and foreign sources
  range of efficiency with the greatest effect, concentration in a mixture with oxygen: 30-70 % by volume

## [He] [helium]
[1]; in a mixture with oxygen from 21, argon at least 25 % by volume, xenon and krypton, mixture temperature 30 to 70° C.
  effective content providing antihypothermic and antihypoxic effects: at least 40 % by volume

## [Kr] [krypton]
[2]
  critical temperature: 209.35 K
